Experimental data from the CheMixHub viscosity set.

Test: xn = mol fraction of the nth substance listed

C1COCOC1 + NC=O
viscosity [mPa·s], 101 kPa
Conditions | x2 = 0.6012 | x2 = 0.6156 | x2 = 0.8658 | x2 = 0.8689 | x2 = 0.9552 | x2 = 0.9555
298.15 K | 2.039 | – | 3.119 | – | – | 3.328
313.15 K | – | 1.581 | – | 2.196 | 2.366 | –

CCCCCCCC(=O)O + CCCCCC(=O)[O-].[Na+]
100 kPa, x2 = 0.3
Conditions | viscosity [mPa·s]
293.15 K | 305.9
298.15 K | 226.5
303.15 K | 171.1
308.15 K | 131.6
313.15 K | 103
318.15 K | 81.7
323.15 K | 65.7

CCOC(=O)c1ccc(O)cc1 + CCCCCOC(C)=O
Conditions | viscosity [mPa·s]
298.15 K, 101 kPa, x1 = 0.5 | 1.66

Oc1ccccc1Cl + CN(C)C=O
Conditions | viscosity [mPa·s]
303.15 K, 101 kPa, x1 = 0.3286 | 3.443

CCCCOC(C)=O + CCCCCC
viscosity [mPa·s]
Conditions | 298.15 K | 308.15 K
101 kPa, x1 = 0.0521 | 0.3 | 0.282
101 kPa, x1 = 0.1491 | 0.319 | 0.3
101 kPa, x1 = 0.2486 | 0.341 | 0.321
101 kPa, x1 = 0.3517 | 0.368 | 0.346
101 kPa, x1 = 0.4482 | 0.397 | 0.372
101 kPa, x1 = 0.4932 | 0.412 | 0.385
101 kPa, x1 = 0.5515 | 0.433 | 0.403
101 kPa, x1 = 0.6483 | 0.472 | 0.436
101 kPa, x1 = 0.7486 | 0.519 | 0.474
101 kPa, x1 = 0.8491 | 0.574 | 0.517
101 kPa, x1 = 0.9461 | 0.635 | 0.565
101.3 kPa, x1 = 0.1335 | 0.3275 | –
101.3 kPa, x1 = 0.2322 | 0.3509 | –
101.3 kPa, x1 = 0.3294 | 0.3762 | –
101.3 kPa, x1 = 0.4644 | 0.4191 | –
101.3 kPa, x1 = 0.5644 | 0.4558 | –
101.3 kPa, x1 = 0.6697 | 0.4996 | –
101.3 kPa, x1 = 0.8002 | 0.5626 | –
101.3 kPa, x1 = 0.8967 | 0.6164 | –
101.3 kPa, x1 = 0.9324 | 0.6456 | –

CCCN + COCCOCCOCCOC
298.15 K, 101 kPa
Conditions | viscosity [mPa·s]
x2 = 0.0076 | 0.366
x2 = 0.0166 | 0.375
x2 = 0.0296 | 0.393
x2 = 0.0659 | 0.44
x2 = 0.0954 | 0.48
x2 = 0.1298 | 0.526
x2 = 0.1596 | 0.567
x2 = 0.1909 | 0.611
x2 = 0.2265 | 0.659
x2 = 0.2351 | 0.673
x2 = 0.2622 | 0.711
x2 = 0.2681 | 0.721
x2 = 0.3073 | 0.782
x2 = 0.3623 | 0.864
x2 = 0.4044 | 0.935
x2 = 0.4583 | 1.022
x2 = 0.5139 | 1.115
x2 = 0.5761 | 1.225
x2 = 0.6483 | 1.365
x2 = 0.6867 | 1.435
x2 = 0.745 | 1.549
x2 = 0.8308 | 1.72
x2 = 0.8787 | 1.805
x2 = 0.9203 | 1.862
x2 = 0.9618 | 1.917

CCCN + CCCCOCCOCCO
298.15 K, 101 kPa
Conditions | viscosity [mPa·s]
x2 = 0.0104 | 0.381
x2 = 0.0212 | 0.404
x2 = 0.0381 | 0.44
x2 = 0.0898 | 0.562
x2 = 0.1063 | 0.602
x2 = 0.129 | 0.668
x2 = 0.164 | 0.78
x2 = 0.1944 | 0.884
x2 = 0.2231 | 1.003
x2 = 0.2623 | 1.178
x2 = 0.3079 | 1.4
x2 = 0.327 | 1.505
x2 = 0.3856 | 1.851
x2 = 0.4114 | 2.011
x2 = 0.4443 | 2.23
x2 = 0.4782 | 2.46
x2 = 0.5424 | 2.9
x2 = 0.5729 | 3.115
x2 = 0.6163 | 3.404
x2 = 0.6419 | 3.571
x2 = 0.6779 | 3.79
x2 = 0.7205 | 4.031
x2 = 0.7508 | 4.193
x2 = 0.7957 | 4.402
x2 = 0.8278 | 4.535
x2 = 0.8577 | 4.647
x2 = 0.8744 | 4.703
x2 = 0.9181 | 4.837
x2 = 0.9513 | 4.925
x2 = 0.9752 | 4.986

CCC(CC)CO + CCO
298.15 K, 101.33 kPa
Conditions | viscosity [mPa·s]
x2 = 0.1055 | 5.144
x2 = 0.2003 | 4.502
x2 = 0.3067 | 3.844
x2 = 0.4044 | 3.291
x2 = 0.503 | 2.777
x2 = 0.6076 | 2.35
x2 = 0.6966 | 1.972
x2 = 0.8051 | 1.617
x2 = 0.9036 | 1.345

CCCOC(=O)c1ccccc1 + CCCCCCCCCCCCCC
101 kPa
Conditions | viscosity [mPa·s]
298.15 K, x2 = 0.0348 | 2.302
298.15 K, x2 = 0.0666 | 2.257
298.15 K, x2 = 0.0955 | 2.215
298.15 K, x2 = 0.1309 | 2.171
298.15 K, x2 = 0.1608 | 2.137
298.15 K, x2 = 0.1965 | 2.099
298.15 K, x2 = 0.2367 | 2.06
298.15 K, x2 = 0.2722 | 2.029
298.15 K, x2 = 0.307 | 2.003
298.15 K, x2 = 0.3527 | 1.974
298.15 K, x2 = 0.401 | 1.948
298.15 K, x2 = 0.4477 | 1.928
298.15 K, x2 = 0.4973 | 1.916
298.15 K, x2 = 0.549 | 1.906
298.15 K, x2 = 0.5955 | 1.905
298.15 K, x2 = 0.6516 | 1.908
298.15 K, x2 = 0.7159 | 1.921
298.15 K, x2 = 0.7647 | 1.934
298.15 K, x2 = 0.8531 | 1.97
308.15 K, x2 = 0.0488 | 1.84
308.15 K, x2 = 0.0735 | 1.808
308.15 K, x2 = 0.1091 | 1.77
308.15 K, x2 = 0.148 | 1.734
308.15 K, x2 = 0.1734 | 1.714
308.15 K, x2 = 0.215 | 1.682
308.15 K, x2 = 0.2514 | 1.659
308.15 K, x2 = 0.2896 | 1.639
308.15 K, x2 = 0.3376 | 1.62
308.15 K, x2 = 0.3703 | 1.608
308.15 K, x2 = 0.4154 | 1.596
308.15 K, x2 = 0.4616 | 1.587
308.15 K, x2 = 0.5232 | 1.58
308.15 K, x2 = 0.572 | 1.58
308.15 K, x2 = 0.6124 | 1.582
308.15 K, x2 = 0.6769 | 1.588
308.15 K, x2 = 0.7367 | 1.601
308.15 K, x2 = 0.8128 | 1.623
308.15 K, x2 = 0.8907 | 1.652
318.15 K, x2 = 0.0558 | 1.521
318.15 K, x2 = 0.0578 | 1.517
318.15 K, x2 = 0.0908 | 1.491
318.15 K, x2 = 0.1258 | 1.464
318.15 K, x2 = 0.159 | 1.442
318.15 K, x2 = 0.1985 | 1.418
318.15 K, x2 = 0.2344 | 1.399
318.15 K, x2 = 0.2777 | 1.379
318.15 K, x2 = 0.3162 | 1.364
318.15 K, x2 = 0.3637 | 1.348
318.15 K, x2 = 0.4065 | 1.337
318.15 K, x2 = 0.4576 | 1.328
318.15 K, x2 = 0.5191 | 1.321
318.15 K, x2 = 0.5622 | 1.319
318.15 K, x2 = 0.6149 | 1.32
318.15 K, x2 = 0.68 | 1.325
318.15 K, x2 = 0.7358 | 1.332
318.15 K, x2 = 0.8096 | 1.347
318.15 K, x2 = 0.9298 | 1.382

Nc1ncnc2[nH]cnc12 + O
viscosity [mPa·s], 101.3 kPa
Conditions | 293.15 K | 298.15 K | 303.15 K | 308.15 K | 313.15 K | 318.15 K
x1 = 9.33e-05 | 1.006 | 0.895 | 0.803 | 0.738 | 0.623 | 0.595
x1 = 0.0001925 | 1.009 | 0.898 | 0.806 | 0.741 | 0.626 | 0.598
x1 = 0.0002792 | 1.011 | 0.9 | 0.808 | 0.743 | 0.628 | 0.6
x1 = 0.0003724 | 1.013 | 0.902 | 0.81 | 0.745 | 0.63 | 0.602
x1 = 0.0004489 | 1.015 | 0.904 | 0.812 | 0.747 | 0.632 | 0.604
x1 = 0.0005443 | 1.017 | 0.906 | 0.814 | 0.749 | 0.634 | 0.606

CCCN + COCCOCCO
298.15 K, 101 kPa
Conditions | viscosity [mPa·s]
x2 = 0.0255 | 0.399
x2 = 0.0563 | 0.444
x2 = 0.0879 | 0.493
x2 = 0.1249 | 0.562
x2 = 0.1605 | 0.634
x2 = 0.2036 | 0.735
x2 = 0.2453 | 0.842
x2 = 0.2996 | 1.01
x2 = 0.3405 | 1.159
x2 = 0.3854 | 1.334
x2 = 0.4144 | 1.455
x2 = 0.4488 | 1.601
x2 = 0.4769 | 1.726
x2 = 0.5252 | 1.953
x2 = 0.5736 | 2.163
x2 = 0.6235 | 2.386
x2 = 0.6581 | 2.523
x2 = 0.7072 | 2.718
x2 = 0.7563 | 2.892
x2 = 0.7974 | 3.02
x2 = 0.8476 | 3.165
x2 = 0.8779 | 3.225
x2 = 0.9088 | 3.297
x2 = 0.9387 | 3.351
x2 = 0.9526 | 3.375
